Laboratory results taken from US6387389B1 (priority 1996, dated 2002).

What was measured:
[1] = system: food-maintained and cocaine-maintained responding in rhesus monkeys; conditions: comparison value for the shorter-acting drug; cited from earlier work
[2] = system: dopamine (DA) and serotonin (5-HT) in nucleus accumbens dialysate; assay: In vivo microdialysis with methamphetamine challenge; parameters: species or system male Sprague-Dawley rats; conditions: 0.7 ml/kg im
[3] = system: food-maintained and cocaine-maintained responding in rhesus monkeys; conditions: rhesus monkey, in vivo
[4] = system: dopamine transporter versus serotonin and norepinephrine transporters; conditions: Rothman et al. (1993); cited from earlier work
[5] = target: T1, reuptake of tritiated serotonin ([3H]5HT), rat whole brain minus cerebellum synaptosomes (Rattus norvegicus, UniProt P31652); format: biochemical
T1 construct: homogenization of rat caudate (DA) or whole brain minus cerebellum (5HT); from tissue; host or cells: rat whole brain minus cerebellum, synaptosomes

[6] = methamphetamine 1 mg/kg iv four days later, FIG. 4 (percent of baseline)

T1 sequence (P31652 whole entry): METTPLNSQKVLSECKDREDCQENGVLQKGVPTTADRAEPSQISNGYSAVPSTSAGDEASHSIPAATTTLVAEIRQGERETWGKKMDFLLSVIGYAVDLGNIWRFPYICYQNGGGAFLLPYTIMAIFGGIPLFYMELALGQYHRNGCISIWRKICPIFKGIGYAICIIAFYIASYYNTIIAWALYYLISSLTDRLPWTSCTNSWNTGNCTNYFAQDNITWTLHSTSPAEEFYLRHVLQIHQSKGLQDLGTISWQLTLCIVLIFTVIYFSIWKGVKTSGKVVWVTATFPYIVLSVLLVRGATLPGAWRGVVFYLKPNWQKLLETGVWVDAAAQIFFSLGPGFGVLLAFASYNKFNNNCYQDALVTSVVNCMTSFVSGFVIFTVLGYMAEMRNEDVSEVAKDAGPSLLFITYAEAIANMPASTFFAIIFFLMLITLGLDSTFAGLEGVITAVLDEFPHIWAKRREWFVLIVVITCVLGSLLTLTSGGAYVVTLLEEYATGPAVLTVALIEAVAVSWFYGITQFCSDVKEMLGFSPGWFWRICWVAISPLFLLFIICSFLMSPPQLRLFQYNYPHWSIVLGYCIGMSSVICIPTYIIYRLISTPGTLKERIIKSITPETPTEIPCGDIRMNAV

In the case of `Fc1ccc(C(OCCN2CCN(CCCc3ccccc3)CC2)c2ccc(F)cc2)cc1` [GBR 12909, 1-[2-[bis(4-fluorophenyl)methoxy]ethyl]-4-[3-phenylpropyl]piperazine], the “duration of effect on cocaine-maintained responding” value [1] is given as 4 to 6 h.
With `CCCCCCCCCC(=O)OC(CCN1CCN(CCOC(c2ccc(F)cc2)c2ccc(F)cc2)CC1)c1ccccc1` (racemic) [compound 5*, (±)1-[2-Bis-(p-fluorophenyl)methoxy]ethyl]-4-(3-hyroxy-3-phenylpropyl)piperazine decanoate ester] the “increase of basal levels of dopamine (DA)” value ([2]; four days after injection, FIG. 3) was “two-fold”, the “ability of methamphetamine to increase dopamine levels” value ([2]; methamphetamine 1 mg/kg iv four days later, FIG. 3 (picogram/fraction)) was “essentially eliminated” and the “ability of methamphetamine to increase dopamine” value [2, 6] was “blunted”. For the same molecule, the “ability of methamphetamine to increase serotonin (5-HT)” value [2, 6] was “blunted” and the “duration of sustained and selective effect on cocaine-maintained responding” value [3] was “almost thirty days”.
In the case of `c1ccc(CCCN2CCCN(CCOC(c3ccccc3)c3ccccc3)CC2)cc1` [LR1111, 1-[2-(diphenyl-methoxy)-ethyl]-4-(3-phenylpropyl)homopiperazine], the “selectivity for the dopamine transporter over the serotonin and norepinephrine transporters” value [4] is given as “over 4,000 fold”.
Molecule `NCCc1c[nH]c2ccc(O)cc12` [[^3H]5HT] has a Km [5] of 0.0174 ± 0.0008 µM.
